Here are results for 1 substance from patent publication EP0465481B1, “NEW S[…] DERIVATIVES OF TEICOPLANIN” (GRUPPO LEPETIT S.p.A., priority 1989, dated 1990).

In this test the test system is Pseudomonas aeruginosa. Kind of test: MIC, standard two-fold dilution test in microtiter. Format: cell-based. To be noted: against Pseudomonas aeruginosa. The method, then:
Broth cultures are diluted enough so that the final inoculum is about 10^4 colony forming units/ml (CFU/mi).

In the case of teicoplanin, the MIC is recorded as no less than 32 microgram/ml.
